# From US20090232838A1, “Ligands of melanocortin receptors” (priority 2005, published 2009)
# Like-named read-outs stand apart in the source and are kept apart here. Where a SMILES comes first, the peptide text is derived from it. Bridges are numbered along the chain shown (N, C = ends). [ ]: non-standard residue; d: D form. d2Nal = N[C@H](Cc1ccc2ccccc2c1)C(=O)O
# What was measured:
# Type in all cases: cell-based
# hMC1-R = target: T1, hMC1-R (Homo sapiens, UniProt Q01726); experiment: cyclic AMP bioassay, hMC1-R
# T1 construct: expressed in transfected cells; host or cells: CHO-K1
# T1 sequence (Q01726 whole entry): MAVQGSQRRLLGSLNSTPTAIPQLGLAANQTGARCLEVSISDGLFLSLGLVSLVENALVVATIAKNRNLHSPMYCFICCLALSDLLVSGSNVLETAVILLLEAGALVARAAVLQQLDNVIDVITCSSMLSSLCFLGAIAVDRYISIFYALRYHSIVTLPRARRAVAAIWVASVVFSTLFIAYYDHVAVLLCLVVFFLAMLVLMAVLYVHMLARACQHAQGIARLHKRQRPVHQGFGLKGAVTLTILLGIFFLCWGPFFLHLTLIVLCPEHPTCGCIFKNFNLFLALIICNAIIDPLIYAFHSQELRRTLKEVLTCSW
# hMC4-R = target: T2, hMC4-R (Homo sapiens, UniProt P32245); experiment: cyclic AMP bioassay, hMC4-R
# T2 construct: expressed in transfected cells; host or cells: CHO-K1
# T2 sequence (P32245 whole entry): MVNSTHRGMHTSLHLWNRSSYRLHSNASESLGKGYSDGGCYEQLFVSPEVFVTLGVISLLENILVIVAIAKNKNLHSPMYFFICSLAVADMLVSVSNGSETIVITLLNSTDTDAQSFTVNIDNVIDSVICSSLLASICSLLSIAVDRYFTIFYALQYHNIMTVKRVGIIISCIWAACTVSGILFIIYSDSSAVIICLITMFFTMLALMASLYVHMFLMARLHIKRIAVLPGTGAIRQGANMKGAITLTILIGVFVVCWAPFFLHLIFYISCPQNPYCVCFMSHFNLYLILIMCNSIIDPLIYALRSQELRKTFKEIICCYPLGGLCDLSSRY
# hMC5-R = target: T3, hMC5-R (Homo sapiens, UniProt P33032); experiment: cyclic AMP bioassay, hMC5-R
# T3 construct: expressed in transfected cells; host or cells: CHO-K1
# T3 sequence (P33032 whole entry): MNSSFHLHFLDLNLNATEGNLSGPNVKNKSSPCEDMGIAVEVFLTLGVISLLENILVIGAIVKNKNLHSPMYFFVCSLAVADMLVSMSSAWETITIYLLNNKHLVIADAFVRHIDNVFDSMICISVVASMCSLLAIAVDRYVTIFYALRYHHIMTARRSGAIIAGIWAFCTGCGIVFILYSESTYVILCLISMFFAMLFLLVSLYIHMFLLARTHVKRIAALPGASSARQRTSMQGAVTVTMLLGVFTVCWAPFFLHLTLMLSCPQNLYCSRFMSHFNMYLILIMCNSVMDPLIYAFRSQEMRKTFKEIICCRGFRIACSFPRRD
# hMC3-R = target: T4, hMC3-R (Homo sapiens, UniProt P41968); experiment: cyclic AMP bioassay, hMC3-R
# T4 construct: expressed in transfected cells; host or cells: CHO-K1
# T4 sequence (P41968 whole entry): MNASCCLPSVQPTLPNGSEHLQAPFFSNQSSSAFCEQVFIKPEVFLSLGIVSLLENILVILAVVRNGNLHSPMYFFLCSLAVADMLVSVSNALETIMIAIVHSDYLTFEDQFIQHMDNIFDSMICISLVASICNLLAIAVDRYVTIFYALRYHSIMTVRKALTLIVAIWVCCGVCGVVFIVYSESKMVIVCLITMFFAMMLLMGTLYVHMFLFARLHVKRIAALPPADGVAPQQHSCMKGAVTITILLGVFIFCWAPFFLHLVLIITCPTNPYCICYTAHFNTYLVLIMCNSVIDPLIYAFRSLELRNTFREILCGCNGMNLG
# [1] = Table 3A, cAMP in CHO-K1 cells, agonist, read-out: EC50 hMC1-R
# [2] = Table 3A, cAMP in CHO-K1 cells, antagonist potency by Schild analysis, read-out: Kb hMC4-R
# [3] = Table 3A, cAMP in CHO-K1 cells, agonist, read-out: EC50 hMC5-R
# [4] = Table 3A, cAMP in CHO-K1 cells, antagonist potency by Schild analysis, read-out: Kb hMC3-R
SMILES,EC50 (hMC1-R),Kb (hMC4-R),EC50 (hMC5-R),Kb (hMC3-R),EC50 (hMC1-R; [1]),Kb (hMC4-R; [2]),EC50 (hMC5-R; [3]),Kb (hMC3-R; [4]),EC50 (hMC4-R),EC50 (hMC3-R)
CC(=O)N[C@H]1CSSC[C@@H](C(=O)N2CCC[C@H]2C(=O)N2CCC[C@H]2C(=O)N[C@@H](CCCCN)C(=O)N[C@@H](CC(=O)O)C(=O)NCCC(=O)N[C@@H](Cc2ccc(O)cc2)C(=O)NCC(=O)N[C@@H](CCCNC(=N)N)C(=O)N[C@@H](CCCCN)C(=O)N[C@@H](CCCNC(=N)N)C(=O)N[C@@H](CCCNC(=N)N)C(=O)N[C@@H](CCCNC(=N)N)C(=O)N[C@@H](CCC(N)=O)C(=O)N[C@@H](CCCNC(=N)N)C(=O)N[C@@H](CCCNC(=N)N)C(=O)N[C@@H](CCCNC(=N)N)C(N)=O)NC(=O)[C@H](C)NC(=O)[C@H](Cc2ccc3ccccc3c2)NC(=O)[C@H](CCCNC(=N)N)NC(=O)[C@@H](Cc2ccc3ccccc3c2)NC(=O)[C@H](Cc2c[nH]cn2)NC(=O)[C@H](CCC(=O)O)NC1=O,34.7 nM,8.68 nM,28.2 nM,15 nM,,,,,,
CCCC[C@H](NC(C)=O)C(=O)N[C@H]1CSSC[C@@H](C(=O)NCCC(=O)N[C@@H](Cc2ccc(O)cc2)C(=O)NCC(=O)N[C@@H](CCCNC(=N)N)C(=O)N[C@@H](CCCNC(=N)N)C(=O)N[C@@H](CCCNC(=N)N)C(=O)N[C@@H](CCCNC(=N)N)C(=O)N[C@@H](CCCNC(=N)N)C(=O)N[C@@H](CCC(N)=O)C(=O)N[C@@H](CCCNC(=N)N)C(=O)N[C@@H](CCCNC(=N)N)C(=O)N[C@@H](CCCNC(=N)N)C(N)=O)NC(=O)[C@H](Cc2c[nH]c3ccccc23)NC(=O)[C@H](CCCNC(=N)N)NC(=O)[C@@H](Cc2ccccc2)NC(=O)[C@H](Cc2c[nH]cn2)NC(=O)[C@@H](C)NC1=O,7.86 nM,0.843 nM,4900 nM,10.5 nM,,,,,,
CC(=O)N[C@H]1CSSC[C@@H](C(=O)N2CCC[C@H]2C(=O)N2CCC[C@H]2C(=O)N[C@@H](CCCCN)C(=O)N[C@@H](CC(=O)O)C(=O)NCCC(=O)N[C@@H](CCCNC(=N)N)C(=O)N[C@@H](CCCNC(=N)N)C(=O)N[C@@H](CCCCN)C(=O)N[C@@H](CCCNC(=N)N)C(=O)N[C@@H](CCCNC(=N)N)C(=O)N[C@@H](CCC(N)=O)C(=O)N[C@@H](CCCNC(=N)N)C(=O)N[C@@H](CCCNC(=N)N)C(=O)N[C@@H](CCCNC(=N)N)C(N)=O)NC(=O)[C@H](C)NC(=O)[C@H](Cc2cccc3ccccc23)NC(=O)[C@H](CCCNC(=N)N)NC(=O)[C@@H](Cc2ccc3ccccc3c2)NC(=O)[C@H](Cc2c[nH]cn2)NC(=O)[C@H](CCC(=O)O)NC1=O,70.4 nM,18.6 nM,> 10000 nM,286 nM,,,,,,
CC(=O)N[C@H]1CSSC[C@@H](C(=O)N2CCC[C@H]2C(=O)N2CCC[C@H]2C(=O)N[C@@H](CCCCN)C(=O)N[C@@H](CC(=O)O)C(=O)NCCC(=O)N[C@@H](CCCNC(=N)N)C(=O)N[C@@H](CCCCN)C(=O)N[C@@H](CCCNC(=N)N)C(=O)N[C@@H](CCCNC(=N)N)C(=O)N[C@@H](CCCNC(=N)N)C(=O)N[C@@H](CCC(N)=O)C(=O)N[C@@H](CCCNC(=N)N)C(=O)N[C@@H](CCCNC(=N)N)C(=O)N[C@@H](CCCNC(=N)N)C(N)=O)NC(=O)[C@H](C)NC(=O)[C@H](Cc2ccc3ccccc3c2)NC(=O)[C@H](CCCNC(=N)N)NC(=O)[C@@H](Cc2ccc3ccccc3c2)NC(=O)[C@H](Cc2c[nH]cn2)NC(=O)[C@H](CCC(=O)O)NC1=O,23.7 nM,5.87 nM,39.7 nM,9.22 nM,,,,,,
CC(=O)N[C@H]1CSSC[C@@H](C(=O)N2CCC[C@H]2C(=O)N2CCC[C@H]2C(=O)N[C@@H](CCCCN)C(=O)N[C@@H](CC(=O)O)C(=O)NCCC(=O)NCC(=O)N[C@@H](CCCNC(=N)N)C(=O)N[C@@H](CCCNC(=N)N)C(=O)N[C@@H](CCCCN)C(=O)N[C@@H](CCCNC(=N)N)C(=O)N[C@@H](CCCNC(=N)N)C(=O)N[C@@H](CCC(N)=O)C(=O)N[C@@H](CCCNC(=N)N)C(=O)N[C@@H](CCCNC(=N)N)C(=O)N[C@@H](CCCNC(=N)N)C(N)=O)NC(=O)[C@H](C)NC(=O)[C@H](Cc2cccc3ccccc23)NC(=O)[C@H](CCCNC(=N)N)NC(=O)[C@@H](Cc2ccc3ccccc3c2)NC(=O)[C@H](Cc2c[nH]cn2)NC(=O)[C@H](CCC(=O)O)NC1=O,26.6 nM,9.34 nM,351 nM,101 nM,,,,,,
CC(=O)N[C@H]1CSSC[C@@H](C(=O)N2CCC[C@H]2C(=O)N2CCC[C@H]2C(=O)N[C@@H](CCCCN)C(=O)N[C@@H](CC(=O)O)C(=O)NCCC(=O)N[C@@H](Cc2ccc(O)cc2)C(=O)NCC(=O)N[C@@H](CCCNC(=N)N)C(=O)N[C@@H](CCCCN)C(=O)N[C@@H](CCC(N)=O)C(=O)N[C@@H](CCCCN)C(=O)N[C@@H](CCCNC(=N)N)C(=O)N[C@@H](CCCNC(=N)N)C(=O)N[C@@H](CCCNC(=N)N)C(=O)N[C@@H](CCCNC(=N)N)C(=O)N[C@@H](CCCNC(=N)N)C(N)=O)NC(=O)[C@H](C)NC(=O)[C@H](Cc2c[nH]c3ccccc23)NC(=O)[C@H](CCCNC(=N)N)NC(=O)[C@@H](Cc2ccc3ccccc3c2)NC(=O)[C@H](Cc2c[nH]cn2)NC(=O)[C@H](CCC(=O)O)NC1=O,,,,,7.9 nM,10.9 nM,62.4 nM,41.7 nM,,
CC(=O)N[C@H]1CSSC[C@@H](C(=O)N2CCC[C@H]2C(=O)N2CCC[C@H]2C(=O)N[C@@H](CCCCN)C(=O)N[C@@H](CC(=O)O)C(N)=O)NC(=O)[C@H](C)NC(=O)[C@H](Cc2c[nH]c3ccccc23)NC(=O)[C@H](CCCNC(=N)N)NC(=O)[C@@H](Cc2ccc3ccccc3c2)NC(=O)[C@H](Cc2c[nH]cn2)NC(=O)[C@H](CCC(=O)O)NC1=O [Ac-c(Cys-Glu-His-D-2-Nal-Arg-Trp-Ala-Cys)-Pro-Pro-Lys-Asp-NH2] (Ac-CEH[d2Nal]RWACPPKD-NH2; disulfide 1-8),,,,,66.1 nM,0.687 nM,6.84 nM,33.4 nM,,
CCCC[C@H](NC(C)=O)C(=O)N[C@H]1CC(=O)NCCCC[C@@H](C(=O)N2CCC[C@H]2C(=O)N2CCC[C@H]2C(=O)N[C@@H](CCCCN)C(=O)N[C@@H](CC(=O)O)C(=O)NCCOCCOCC(=O)N[C@@H](Cc2ccc(O)cc2)C(=O)NCC(=O)N[C@@H](CCCNC(=N)N)C(=O)N[C@@H](CCCCN)C(=O)N[C@@H](CCCCN)C(=O)N[C@@H](CCCNC(=N)N)C(=O)N[C@@H](CCCNC(=N)N)C(=O)N[C@@H](CCC(N)=O)C(=O)N[C@@H](CCCNC(=N)N)C(=O)N[C@@H](CCCNC(=N)N)C(=O)N[C@@H](CCCNC(=N)N)C(N)=O)NC(=O)[C@H](Cc2c[nH]c3ccccc23)NC(=O)[C@H](CCCNC(=N)N)NC(=O)[C@@H](Cc2ccc3ccccc3c2)NC(=O)[C@H](Cc2c[nH]cn2)NC1=O,,,,,3.65 nM,3.73 nM,1.61 nM,19.4 nM,,
CCCC[C@H](NC(C)=O)C(=O)N[C@H]1CSSC[C@@H](C(=O)NCCC(=O)N[C@@H](Cc2ccc(O)cc2)C(=O)NCC(=O)N[C@@H](CCCNC(=N)N)C(=O)N[C@@H](CCCNC(=N)N)C(=O)N[C@@H](CCCCN)C(=O)N[C@@H](CCCNC(=N)N)C(=O)N[C@@H](CCCNC(=N)N)C(=O)N[C@@H](CCC(N)=O)C(=O)N[C@@H](CCCNC(=N)N)C(=O)N[C@@H](CCCNC(=N)N)C(=O)N[C@@H](CCCNC(=N)N)C(N)=O)NC(=O)[C@H](Cc2c[nH]c3ccccc23)NC(=O)[C@H](CCCNC(=N)N)NC(=O)[C@@H](Cc2ccccc2)NC(=O)[C@H](Cc2c[nH]cn2)NC(=O)[C@@H](C)NC1=O,5.66 nM,,1550 nM,,,,,,0.422 nM,4.7 nM
CC(=O)N[C@H]1CSSC[C@@H](C(=O)N2CCC[C@H]2C(=O)N2CCC[C@H]2C(=O)N[C@@H](CCCCN)C(=O)N[C@@H](CC(=O)O)C(=O)NCCC(=O)N[C@@H](Cc2ccc(O)cc2)C(=O)NCC(=O)N[C@@H](CCCNC(=N)N)C(=O)N[C@@H](CCCCN)C(=O)N[C@@H](CCCCN)C(=O)N[C@@H](CCC(N)=O)C(=O)N[C@@H](CCCNC(=N)N)C(=O)N[C@@H](CCCNC(=N)N)C(=O)N[C@@H](CCCNC(=N)N)C(=O)N[C@@H](CCCNC(=N)N)C(=O)N[C@@H](CCCNC(=N)N)C(N)=O)NC(=O)[C@H](C)NC(=O)[C@H](Cc2c[nH]c3ccccc23)NC(=O)[C@H](CCCNC(=N)N)NC(=O)[C@@H](Cc2ccc3ccccc3c2)NC(=O)[C@H](Cc2c[nH]cn2)NC(=O)[C@H](CCC(=O)O)NC1=O,,,,,6.7 nM,11.7 nM,46.2 nM,9.38 nM,,
CC(=O)N[C@H]1CSSC[C@@H](C(=O)N2CCC[C@H]2C(=O)N2CCC[C@H]2C(=O)N[C@@H](CCCCN)C(=O)N[C@@H](CC(=O)O)C(=O)NCCC(=O)N[C@@H](Cc2ccc(O)cc2)C(=O)NCC(=O)N[C@@H](CCCNC(=N)N)C(=O)N[C@@H](CCCCN)C(=O)N[C@@H](CCCCN)C(=O)N[C@@H](CCCNC(=N)N)C(=O)N[C@@H](CCC(N)=O)C(=O)N[C@@H](CCCNC(=N)N)C(=O)N[C@@H](CCCNC(=N)N)C(=O)N[C@@H](CCCNC(=N)N)C(=O)N[C@@H](CCCNC(=N)N)C(N)=O)NC(=O)[C@H](C)NC(=O)[C@H](Cc2c[nH]c3ccccc23)NC(=O)[C@H](CCCNC(=N)N)NC(=O)[C@@H](Cc2ccc3ccccc3c2)NC(=O)[C@H](Cc2c[nH]cn2)NC(=O)[C@H](CCC(=O)O)NC1=O,15.2 nM,4.52 nM,36.8 nM,14.6 nM,,,,,,
CC(=O)N[C@H]1CSSC[C@@H](C(=O)N2CCC[C@H]2C(=O)N2CCC[C@H]2C(=O)N[C@@H](CCCCN)C(=O)N[C@@H](CC(=O)O)C(=O)NCCC(=O)N[C@@H](Cc2ccc(O)cc2)C(=O)NCC(=O)N[C@@H](CCCNC(=N)N)C(=O)N[C@@H](CCCCN)C(=O)N[C@@H](CCCCN)C(=O)N[C@@H](CCCNC(=N)N)C(=O)N[C@@H](CCCNC(=N)N)C(=O)N[C@@H](CCCNC(=N)N)C(=O)N[C@@H](CCCNC(=N)N)C(=O)N[C@@H](CCC(N)=O)C(=O)N[C@@H](CCCNC(=N)N)C(N)=O)NC(=O)[C@H](C)NC(=O)[C@H](Cc2c[nH]c3ccccc23)NC(=O)[C@H](CCCNC(=N)N)NC(=O)[C@@H](Cc2ccc3ccccc3c2)NC(=O)[C@H](Cc2c[nH]cn2)NC(=O)[C@H](CCC(=O)O)NC1=O,,,,,16.9 nM,7.12 nM,58.9 nM,36 nM,,
